Results on one compound are retold here after ChEMBL document CHEMBL1782045, “Discovery, synthesis, and investigation of the antitumor activity of novel piperazinylpyrimidine derivatives” (Eur J Med Chem, 2011).

Assay [1] deals with T1, Hepatocyte growth factor receptor (Homo sapiens, UniProt P08581).
Description: Binding affinity to human unphosphorylated c-MET
For assay [2], the target named is T1, Hepatocyte growth factor receptor. The source holds these as a separate data set.
Description: Binding affinity to human phosphorylated c-MET

For orientation: Kd means the equilibrium constant for the complex coming apart. High values mean lower affinity, low ones higher affinity.

T1 sequence (P08581 whole entry): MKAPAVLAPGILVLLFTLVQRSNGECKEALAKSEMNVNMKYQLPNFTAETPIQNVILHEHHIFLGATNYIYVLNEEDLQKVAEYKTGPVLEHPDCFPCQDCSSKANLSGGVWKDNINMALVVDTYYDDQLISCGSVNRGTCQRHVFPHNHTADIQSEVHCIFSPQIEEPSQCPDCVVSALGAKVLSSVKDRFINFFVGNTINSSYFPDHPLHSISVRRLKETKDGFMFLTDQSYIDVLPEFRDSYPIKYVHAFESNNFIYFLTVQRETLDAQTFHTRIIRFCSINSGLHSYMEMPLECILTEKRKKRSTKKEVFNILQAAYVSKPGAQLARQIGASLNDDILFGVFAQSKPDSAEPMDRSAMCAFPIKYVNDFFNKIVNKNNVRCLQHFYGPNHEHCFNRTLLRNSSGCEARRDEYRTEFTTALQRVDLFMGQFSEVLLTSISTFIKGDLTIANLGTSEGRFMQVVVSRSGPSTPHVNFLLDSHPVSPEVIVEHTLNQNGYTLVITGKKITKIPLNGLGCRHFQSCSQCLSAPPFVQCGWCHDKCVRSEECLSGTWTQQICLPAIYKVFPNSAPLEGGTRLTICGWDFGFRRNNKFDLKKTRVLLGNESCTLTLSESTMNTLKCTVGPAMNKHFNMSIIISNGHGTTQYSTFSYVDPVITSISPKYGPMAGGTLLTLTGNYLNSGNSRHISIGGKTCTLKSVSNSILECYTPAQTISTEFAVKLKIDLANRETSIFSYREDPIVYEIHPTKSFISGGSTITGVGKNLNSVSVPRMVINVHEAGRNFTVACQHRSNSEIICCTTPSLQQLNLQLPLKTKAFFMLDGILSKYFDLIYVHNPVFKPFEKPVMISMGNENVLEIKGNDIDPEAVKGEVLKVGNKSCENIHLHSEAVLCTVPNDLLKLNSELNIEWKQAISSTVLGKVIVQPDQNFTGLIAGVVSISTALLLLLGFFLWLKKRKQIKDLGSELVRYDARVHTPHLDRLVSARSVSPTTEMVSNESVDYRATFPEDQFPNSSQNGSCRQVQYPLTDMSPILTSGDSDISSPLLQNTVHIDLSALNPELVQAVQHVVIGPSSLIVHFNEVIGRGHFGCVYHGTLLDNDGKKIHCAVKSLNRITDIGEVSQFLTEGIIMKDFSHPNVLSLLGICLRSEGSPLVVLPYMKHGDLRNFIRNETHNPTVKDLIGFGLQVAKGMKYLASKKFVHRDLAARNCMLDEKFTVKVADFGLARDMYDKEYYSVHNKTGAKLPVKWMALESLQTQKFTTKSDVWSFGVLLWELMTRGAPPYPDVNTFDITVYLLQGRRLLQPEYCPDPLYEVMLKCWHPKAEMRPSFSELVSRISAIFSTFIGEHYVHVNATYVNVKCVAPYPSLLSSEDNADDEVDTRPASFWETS

Turning to `CN(C[C@@H]1COCCO1)S(=O)(=O)Nc1ccc2ccc3ncc(-c4cnn(C)c4)cc3c(=O)c2c1` [MK-2461], the Kd came out at 27.2 nM in assay [1] and 4.4 nM in assay [2].
